Like-named read-outs stand apart in the source and are kept apart here.
Tests used:
[1] = Metabolic stability in mouse liver microsomes; assay type: in vitro ADME; conditions: 5 μM compound, 1 mg/mL mouse liver microsomes, 37° C., NADPH regenerating system
Experimental: (§1) In order to confirm the metabolic stability of the synthetic compounds in the liver, 5 μM test compound and 1 mg/mL human, dog, rat or mouse liver microsomes were allowed to react with each other at 37° C. in the presence of the NADPH regenerating system for 1 hour. After 1 hour, the reaction was terminated and the supernatant obtained by centrifugation was analyzed by HPLC. With the peak value obtained as the analysis result, the residual amount (%) was calculated using the following equation through the peak value of the test compound after 1 hour of the reaction versus the peak value of the test compound at 0 min. Residual amount (%)=(peak value of test compound after 1 hour of reaction/peak value of test compound at 0 min)×100

[2] = tested on: Pfeiffer (EZH2 A677G mutation); assay: Cell growth inhibition test, Pfeiffer; assay type: cell-based; conditions: Homo sapiens, read-out: Cell growth inhibitory activity (GI50, nM) Pfeiffer (EZH2 A677G mutation)
Experimental: Each type of the cultured cells was seeded in 6-well plates or 48-96 well plates, and subculture or medium replacement was performed every 3 to 4 days. Next, the cells were subcultured for a total of 7 to 14 days, and then seeded in 96-well plates. 3 to 5 days before the measurement of the effect, the cells were seeded in 96-well plates, and then the absorbance (Tz) on the day of seeding was measured. The absorbance after the reaction was measured by the plate reader device Synergy NeoAlpha (Biotek) using Cell-Titer-Glo Cell Viability Assay (Promega, G7573) according to the attached manual. Based on the absorbance (Tz) measured on the seeding day and the absorbance of each of the DMSO-treated group (C) and the sample-added group (Ti) measured on the day of effect determination, the percentage of cell proliferation inhibition was calculated according to the following Equation 1. [(Ti−Tz)/(C−Tz)]×100 for concentrations for which Ti≥Tz […] for concentrations for which Ti<Tz. [Equation 1]

EZH1 = molecular target: T1, EZH1 (Homo sapiens, UniProt Q92800); assay: Inhibitory activity against EZH1 methyltransferase (radiometric scintillation proximity assay); assay type: biochemical; conditions: 2.3 nmol/L enzyme, 90 minutes, room temperature;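 note: Read-out is methylation of a substrate peptide, captured on streptavidin-coated SPA beads and counted by scintillation, in Tris-HCl buffer at pH 8.0 with 1% DMSO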
T1 construct: purchased Reaction Biology Corp. (contract assay)
T1 sequence (Q92800 whole entry): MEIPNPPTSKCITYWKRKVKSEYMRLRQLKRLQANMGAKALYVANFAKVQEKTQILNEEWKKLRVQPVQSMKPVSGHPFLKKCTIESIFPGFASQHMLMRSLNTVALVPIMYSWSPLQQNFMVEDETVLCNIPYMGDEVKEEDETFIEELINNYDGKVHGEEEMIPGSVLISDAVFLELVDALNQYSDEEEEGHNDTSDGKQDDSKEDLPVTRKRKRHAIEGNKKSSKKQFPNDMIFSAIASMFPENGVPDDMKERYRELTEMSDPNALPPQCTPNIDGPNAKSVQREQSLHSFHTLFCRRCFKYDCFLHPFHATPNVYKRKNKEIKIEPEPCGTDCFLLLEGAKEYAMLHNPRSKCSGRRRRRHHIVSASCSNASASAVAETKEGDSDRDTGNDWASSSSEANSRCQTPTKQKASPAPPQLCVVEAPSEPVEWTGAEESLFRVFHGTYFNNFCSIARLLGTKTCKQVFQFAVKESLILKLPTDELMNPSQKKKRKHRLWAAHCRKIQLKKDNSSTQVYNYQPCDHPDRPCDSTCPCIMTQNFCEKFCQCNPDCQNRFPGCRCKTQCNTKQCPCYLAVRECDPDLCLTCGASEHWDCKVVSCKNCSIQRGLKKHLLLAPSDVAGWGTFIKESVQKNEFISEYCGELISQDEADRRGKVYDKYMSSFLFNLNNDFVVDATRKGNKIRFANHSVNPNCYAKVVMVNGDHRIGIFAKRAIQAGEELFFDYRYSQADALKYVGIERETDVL
T1 sequence (O75530 whole entry partner): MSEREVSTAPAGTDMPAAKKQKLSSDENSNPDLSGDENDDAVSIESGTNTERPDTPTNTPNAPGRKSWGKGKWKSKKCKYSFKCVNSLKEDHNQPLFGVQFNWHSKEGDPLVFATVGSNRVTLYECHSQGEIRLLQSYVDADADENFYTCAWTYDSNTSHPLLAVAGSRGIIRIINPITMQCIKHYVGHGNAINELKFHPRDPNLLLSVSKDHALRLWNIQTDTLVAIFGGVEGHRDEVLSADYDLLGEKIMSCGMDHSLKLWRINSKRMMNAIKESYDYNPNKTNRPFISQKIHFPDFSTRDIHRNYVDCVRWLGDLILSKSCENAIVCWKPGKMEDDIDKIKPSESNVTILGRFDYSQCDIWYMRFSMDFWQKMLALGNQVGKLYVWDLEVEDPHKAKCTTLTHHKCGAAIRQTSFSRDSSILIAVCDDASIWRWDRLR
T1 sequence (Q15022 whole entry partner): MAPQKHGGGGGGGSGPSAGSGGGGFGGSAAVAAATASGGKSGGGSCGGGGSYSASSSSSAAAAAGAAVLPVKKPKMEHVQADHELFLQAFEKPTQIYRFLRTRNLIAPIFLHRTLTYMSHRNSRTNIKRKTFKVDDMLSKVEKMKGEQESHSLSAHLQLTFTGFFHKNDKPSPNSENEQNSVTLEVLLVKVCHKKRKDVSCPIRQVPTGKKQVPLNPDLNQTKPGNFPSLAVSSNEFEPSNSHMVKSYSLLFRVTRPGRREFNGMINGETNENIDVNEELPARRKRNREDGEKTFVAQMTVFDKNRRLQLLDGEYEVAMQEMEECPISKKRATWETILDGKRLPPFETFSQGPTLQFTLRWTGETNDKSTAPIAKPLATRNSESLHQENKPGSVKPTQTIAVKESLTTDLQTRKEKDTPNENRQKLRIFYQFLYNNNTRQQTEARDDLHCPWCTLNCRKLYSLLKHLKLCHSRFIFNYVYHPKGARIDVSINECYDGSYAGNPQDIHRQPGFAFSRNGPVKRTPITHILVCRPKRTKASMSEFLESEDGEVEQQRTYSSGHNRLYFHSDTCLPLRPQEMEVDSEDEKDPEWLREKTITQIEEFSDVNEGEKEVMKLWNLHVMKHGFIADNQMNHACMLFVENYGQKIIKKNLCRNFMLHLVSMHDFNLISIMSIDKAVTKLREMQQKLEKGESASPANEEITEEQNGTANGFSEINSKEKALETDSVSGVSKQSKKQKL
T1 sequence (Q09028 whole entry partner): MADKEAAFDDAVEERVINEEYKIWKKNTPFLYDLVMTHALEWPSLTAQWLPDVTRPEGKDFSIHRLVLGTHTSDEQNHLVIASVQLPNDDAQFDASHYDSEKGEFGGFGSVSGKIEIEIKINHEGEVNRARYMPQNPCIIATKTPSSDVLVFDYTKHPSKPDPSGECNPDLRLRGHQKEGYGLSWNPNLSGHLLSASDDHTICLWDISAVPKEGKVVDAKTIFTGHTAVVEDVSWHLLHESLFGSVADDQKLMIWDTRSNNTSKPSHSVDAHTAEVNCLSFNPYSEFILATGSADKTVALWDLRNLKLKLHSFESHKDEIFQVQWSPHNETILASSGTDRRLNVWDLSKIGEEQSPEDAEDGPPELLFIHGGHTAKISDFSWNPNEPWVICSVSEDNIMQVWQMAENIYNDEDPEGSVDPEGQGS
T1 sequence (Q6ZN18 whole entry partner): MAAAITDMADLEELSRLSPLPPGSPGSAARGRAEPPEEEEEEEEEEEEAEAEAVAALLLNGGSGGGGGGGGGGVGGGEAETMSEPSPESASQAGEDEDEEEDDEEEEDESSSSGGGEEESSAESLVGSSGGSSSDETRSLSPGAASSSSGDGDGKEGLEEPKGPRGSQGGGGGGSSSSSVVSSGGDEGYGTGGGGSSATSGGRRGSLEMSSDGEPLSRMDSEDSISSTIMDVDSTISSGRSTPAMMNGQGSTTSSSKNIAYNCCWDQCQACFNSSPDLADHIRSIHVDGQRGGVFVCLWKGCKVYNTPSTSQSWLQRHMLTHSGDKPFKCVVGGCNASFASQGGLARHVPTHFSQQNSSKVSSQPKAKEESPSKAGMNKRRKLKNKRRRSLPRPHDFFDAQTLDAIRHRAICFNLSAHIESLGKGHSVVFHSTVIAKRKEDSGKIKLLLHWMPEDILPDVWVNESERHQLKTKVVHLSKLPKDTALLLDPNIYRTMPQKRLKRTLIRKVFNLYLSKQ

EZH2 = EZH2 (Homo sapiens, UniProt Q15910); assay: Inhibitory activity against EZH2 methyltransferase (radiometric scintillation proximity assay); conditions: Enzyme inhibitory activity (IC50, nM) EZH2, 2.3 nmol/L enzyme, 90 minutes, room temperature;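 note: Read-out is substrate peptide methylation, captured on streptavidin-coated SPA beads and counted by scintillation, with the reaction run in Tris-HCl buffer at pH 8.0 containing 1% DMSO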
Sequence of EZH2 (Q15910 whole entry): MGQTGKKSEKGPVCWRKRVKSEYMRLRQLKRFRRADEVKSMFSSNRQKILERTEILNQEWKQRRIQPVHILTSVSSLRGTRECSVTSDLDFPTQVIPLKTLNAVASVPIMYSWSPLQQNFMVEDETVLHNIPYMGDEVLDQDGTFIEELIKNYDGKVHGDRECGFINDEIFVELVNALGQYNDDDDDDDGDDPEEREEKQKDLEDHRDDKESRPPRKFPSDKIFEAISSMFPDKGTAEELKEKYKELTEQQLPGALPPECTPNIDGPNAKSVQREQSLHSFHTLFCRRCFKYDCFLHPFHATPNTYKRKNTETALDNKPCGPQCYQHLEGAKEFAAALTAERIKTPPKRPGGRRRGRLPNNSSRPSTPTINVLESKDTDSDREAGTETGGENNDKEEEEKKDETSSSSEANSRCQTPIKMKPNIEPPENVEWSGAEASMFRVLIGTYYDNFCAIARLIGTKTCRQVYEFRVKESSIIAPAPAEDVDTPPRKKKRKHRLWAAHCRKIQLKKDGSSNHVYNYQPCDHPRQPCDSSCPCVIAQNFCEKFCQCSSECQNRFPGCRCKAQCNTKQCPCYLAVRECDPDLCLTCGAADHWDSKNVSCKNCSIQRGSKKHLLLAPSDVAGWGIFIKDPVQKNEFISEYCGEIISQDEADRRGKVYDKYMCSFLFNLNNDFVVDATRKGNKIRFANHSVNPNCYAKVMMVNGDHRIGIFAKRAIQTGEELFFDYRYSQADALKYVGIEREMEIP
Sequence of EZH2 (O75530 whole entry partner): as the sequence (O75530 whole entry partner) above
Sequence of EZH2 (Q15022 whole entry partner): as the sequence (Q15022 whole entry partner) above
Sequence of EZH2 (Q09028 whole entry partner): as the sequence (Q09028 whole entry partner) above
Sequence of EZH2 (Q6ZN18 whole entry partner): as the sequence (Q6ZN18 whole entry partner) above

[3] = tested on: KARPAS-422 (EZH2 Y641N mutation); assay: Cell growth inhibition test, KARPAS-422; assay type: cell-based; conditions: KARPAS-422, culture time 7 days, read-out: Cell growth inhibitory activity (GI50, nM) KARPAS-422 (EZH2 Y641N mutation)
[4] = Mouse pharmacokinetics, oral single dose; assay type: in vivo; conditions: plasma, mice (ICR, male), oral single dose 30 mg/kg; for AUC: read-out: Area under oral curve (AUC)
Experimental: Pharmacokinetics of the synthetic compounds as EZH2 inhibitors in mice (ICR, 8-week-old, male) were tested.
The oral administration group was maintained in a fasting state from the day before the test to 4 hours after administration of the test compound. On the day of administration of the test compound, the weight of each animal was measured and each synthetic compound was formulated using a selected solvent based on 30 mg/kg (10 mL/kg). Each test compound was administered orally in a single dose, a certain amount of the blood was taken at a predetermined time, plasma was isolated therefrom, and the concentration of each test compound in the plasma was analyzed using LC-MS/MS (Waters UPLC H-Class/Xevo TQ; Waters, USA). Pharmacokinetic coefficients were calculated by a linear-log trapezoidal summation formula using a non-compartment analysis of the Phoenix™ WinNonlin (Certara, USA) program through the plasma concentration curve over time.

[5] = Metabolic stability in human liver microsomes; assay type: in vitro ADME; conditions: 5 μM compound, 1 mg/mL human liver microsomes, 37° C., NADPH regenerating system
Experimental: as §1

[6] = Homo sapiens, KARPAS-422, 168 h

Residual amount (%) of test compound after 1 hour of reaction, Mouse [1] [%]	IC50 (EZH1) [nM]	IC50 (EZH2) [nM]	GI50 [3, 6] [nM]	AUC ([4]; male, ICR, mouse, po, 30 mg/kg) [ng·h/mL]	Half life T1/2 [4]	Residual amount (%) of test compound after 1 hour of reaction, Human [5] [%]	GI50 [3] [nM]	Area under oral curve (AUC) ([4]; 30 mg/kg)	Half life T1/2 ([4]; 30 mg/kg) [h]	half-life ([4]; male, ICR, mouse, po, 30 mg/kg, read-out: Half life T1/2 (converted)) [h]	SMILES	GI50 [2] [nM]
56	16 to 43	1.5 to 5	2 to 15	14900 to 16400	2.4~2.3 hr	57					Cc1cc(C)c(CN2CCc3c(Cl)c4c(c(C)c3C2=O)OC(C)([C@H]2CC[C@H](N(C)C)CC2)O4)c(=O)[nH]1 (mixture of isomers) [Compound 9, 9-chloro-6-((4,6-dimethyl-2-oxo-1,2-dihydropyridin-3-yl)methyl)-2-(trans-4-(dimethylamino)cyclohexyl)-2,4-dimethyl-7,8-dihydro-[1,3]dioxolo[4,5-g]isoquinolin-5(6H)-one]	0.97
55	10 to 21	0.8 to 1.4				79	2.5 to 13				Cc1cc(C)c(CN2CCc3c(Cl)c4c(c(C)c3C2=O)OC(C)([C@H]2CC[C@H](N(C)C)CC2)O4)c(=O)[nH]1 (single isomer, unassigned) [Compound 10, 9-chloro-6-((4,6-dimethyl-2-oxo-1,2-dihydropyridin-3-yl)methyl)-2-(trans-4-(dimethylamino)cyclohexyl)-2,4-dimethyl-7,8-dihydro-[1,3]dioxolo[4,5-g]isoquinolin-5(6H)-one]	0.84
84	28	1.8				82	1.8				Cc1cc(C)c(CN2CCc3c(C)c4c(c(C)c3C2=O)OC(C)([C@H]2CC[C@H](N(C)C)CC2)O4)c(=O)[nH]1 (single isomer, unassigned) [Compound 40, 6-((4,6-dimethyl-2-oxo-1,2-dihydropyridin-3-yl)methyl)-2-(trans-4-(dimethylamino)cyclohexyl)-2,4,9-trimethyl-7,8-dihydro-[1,3]dioxolo[4,5-g]isoquinolin-5(6H)-one]	0.71
54						35	419	12,239 ng · hr/mL	2.5		Cc1cc(C)c(CN2CCc3c(Br)c4c(c(C)c3C2=O)OC(C)([C@H]2CC[C@H](N(C)C)CC2)O4)c(=O)[nH]1 (single isomer, unassigned) [Compound 50, 9-bromo-6-((4,6-dimethyl-2-oxo-1,2-dihydropyridin-3-yl)methyl)-2-(trans-4-(dimethylamino)cyclohexyl)-2,4-dimethyl-7,8-dihydro-[1,3]dioxolo[4,5-g]isoquinolin-5(6H)-one]	
79	20	2.6	1.9 to 2.6	770		84					Cc1cc(C)c(CN2CCc3c(C)c4c(c(Cl)c3C2=O)OC(C)([C@H]2CC[C@H](N(C)C)CC2)O4)c(=O)[nH]1 (some centres unmarked) [Compound 4]	
61	23 to 50	3.2	4.9 to 15			57					Cc1cc(C)c(CN2CCc3c(Cl)c4c(c(C)c3C2=O)OC(C)([C@H]2CC[C@@H](N(C)C)CC2)O4)c(=O)[nH]1 (stereo partly drawn) [Compound 12, 9-chloro-6-((4,6-dimethyl-2-oxo-1,2-dihydropyridin-3-yl)methyl)-2-(cis-4-(dimethylamino)cyclohexyl)-2,4-dimethyl-7,8-dihydro-[1,3]dioxolo[4,5-g]isoquinolin-5(6H)-one]	0.66
79	23 to 35	1.8 to 2.3	1.8 to 9.6	1040		82					COc1cc(C)[nH]c(=O)c1CN1CCc2c(Cl)c3c(c(C)c2C1=O)OC(C)([C@H]1CC[C@H](N(C)C)CC1)O3 (stereo partly drawn) [Compound 13, 9-chloro-2-(trans-4-(dimethylamino)cyclohexyl)-6-((4-methoxy-6-methyl-2-oxo-1,2-dihydropyridin-3-yl)methyl)-2,4-dimethyl-7,8-dihydro-[1,3]dioxolo[4,5-g]isoquinolin-5(6H)-one]	0.27
100	9.7	1.4	3.2			66					CN[C@H]1CC[C@H](C2(C)Oc3c(C)c4c(c(Cl)c3O2)CCN(Cc2c(C)cc(C)[nH]c2=O)C4=O)CC1 (stereo partly drawn) [Compound 34, 9-chloro-6-((4,6-dimethyl-2-oxo-1,2-dihydropyridin-3-yl)methyl)-2,4-dimethyl-2-(trans-4-(methylamino)cyclohexyl)-7,8-dihydro-[1,3]dioxolo[4,5-g]isoquinolin-5(6H)-one]	1.48
88	31 to 34	3.4 to 6	2.6 to 8.8			74					COc1cc(C)[nH]c(=O)c1CN1CCc2c(C)c3c(c(C)c2C1=O)OC(C)([C@H]1CC[C@H](N(C)C)CC1)O3 (stereo partly drawn) [Compound 42, 2-(trans-4-(dimethylamino)cyclohexyl)-6-((4-methoxy-6-methyl-2-oxo-1,2-dihydropyridin-3-yl)methyl)-2,4,9-trimethyl-7,8-dihydro-[1,3]dioxolo[4,5-g]isoquinolin-5(6H)-one]	0.97 to 1.41
61	8.1	1.4	58			52					CCCc1cc(C)[nH]c(=O)c1CN1CCc2c(C)c3c(c(C)c2C1=O)OC(C)([C@H]1CC[C@H](N(C)C)CC1)O3 (some centres unmarked) [Compound 43]	6.76
52			3.7 to 12.4	17300 to 18700		54				2.8 to 3.2	Cc1cc(C)c(CN2CCc3c(Br)c4c(c(C)c3C2=O)OC(C)([C@H]2CC[C@H](N(C)C)CC2)O4)c(=O)[nH]1 (stereo partly drawn) [Compound 48, 9-bromo-6-((4,6-dimethyl-2-oxo-1,2-dihydropyridin-3-yl)methyl)-2-(trans-4-(dimethylamino)cyclohexyl)-2,4-dimethyl-7,8-dihydro-[1,3]dioxolo[4,5-g]isoquinolin-5(6H)-one]	0.77
64	41	1.6	4.4	1520		70					CN[C@H]1CC[C@H](C2(C)Oc3c(C)c4c(c(Br)c3O2)CCN(Cc2c(C)cc(C)[nH]c2=O)C4=O)CC1 (stereo partly drawn) [Compound 51, 9-bromo-6-((4,6-dimethyl-2-oxo-1,2-dihydropyridin-3-yl)methyl)-2,4-dimethyl-2-(trans-4-(methylamino)cyclohexyl)-7,8-dihydro-[1,3]dioxolo[4,5-g]isoquinolin-5(6H)-one]	

Reference: patent publication US12344618B2, “Heterotricyclic derivative compound and use of same” (HANMI PHARMACEUTICAL CO., LTD., priority 2019, dated 2025)
